The values below come from PubChem BioAssay AID1996.

Molecules are shown by their SMILES. In brackets after ≈: the same amount, converted by molar mass.

For the series the following is noted: buffer; pH 7.4; 200.0 µM.
In the case of `Cc1ccc(C(=O)CNc2cc(C)ccc2C)cc1`, the solubility (kinetic) (in general, the concentration staying in solution when a stock, usually in DMSO, is diluted into the medium) is below 0.5 µg/mL.

Take `CNC(=O)c1c(NC(=O)c2ccco2)sc(C)c1C`: the solubility (kinetic) amounted to 11.6 µg/mL (≈ 41.7 µM).

Turning to `O=C(Nc1cccnc1)c1cc(Cl)ccc1Cl`, the solubility (kinetic) is above 40.1 µg/mL.

Turning to `NC(=O)c1ccccc1NC(=O)CCn1c(=S)oc2ccccc21`, the solubility (kinetic) came to 43.2 µg/mL (≈ 127 µM).

`CC(CCc1ccccc1)NC(=O)c1ccc(Br)cc1` (stereo unspecified): the solubility (kinetic) is 1.1 µg/mL (≈ 3.31 µM).

Compound `Cl.N=C(N)SCc1ccc(O)c([N+](=O)[O-])c1` displayed a solubility (kinetic) above 39.6 µg/mL.

`O=[N+]([O-])c1ccc2oc(C(O)c3cccc(Cl)c3)cc2c1` (stereo unspecified) came in with a solubility (kinetic) of 19.4 µg/mL (≈ 63.9 µM).

For the compound `CC1CC(C)(C)NC(=S)O1` (stereo unspecified), the solubility (kinetic) is above 23.9 µg/mL.

As for `CCOC(=O)N1CCN(CCC(=O)c2ccc(Cl)cc2)CC1.Cl`, the solubility (kinetic) is above 48.7 µg/mL.

For `N#CC1(NC(=O)CSc2nc3ccccc3s2)CCCCC1`, the kinetic solubility came out at 46.4 µg/mL (≈ 140 µM).

As to `CN1C(=O)/C(=C\c2ccccc2OCc2ccccc2)SC1=S`, the kinetic solubility was below 0.7 µg/mL.

As to `O=C(OCN1C(=O)c2ccccc2C1=O)c1cccc(OC(F)F)c1`, the solubility (kinetic) is 0.9 µg/mL (≈ 2.59 µM).

As to `CC(C)c1ccc(NC2CCCN(C(=O)c3ccco3)C2)cc1` (stereo unspecified), the solubility (kinetic) is above 46.9 µg/mL.

For `COc1ccc(C(=O)OCC(=O)c2ccc3c(c2)NC(=O)CO3)cc1S(=O)(=O)N1CCOCC1`, the kinetic solubility was determined as 11.3 µg/mL (≈ 23 µM).

In turn, `CCNC(=O)CSc1nc2sccc2c(=O)n1-c1ccccc1` showed a kinetic solubility above 51.8 µg/mL.

Turning to `COC(=O)c1ccc(CNC(=O)C23CC4CC(CC(C4)C2)C3)cc1`, the solubility (kinetic) was determined as 6.2 µg/mL (≈ 18.9 µM).

`CCN1CCN(c2ncnc3sc4c(c23)CCC(C)C4)CC1` (stereo unspecified) yielded a solubility (kinetic) of 26.4 µg/mL (≈ 83.4 µM).

`Cc1ccc(C2=NN(CC(=O)NCCC(C)C)C(=O)CC2)cc1` showed a solubility (kinetic) above 47.3 µg/mL.

Consider `COc1ccc(C(=O)Nc2ccc3ccccc3c2)c(OC)c1`, for which the solubility (kinetic) is below 0.7 µg/mL.

Take `Cc1ccc(C(=O)NCC(C)NC(=O)c2ccc(C)c(C)c2)cc1C` (stereo unspecified): the solubility (kinetic) came out at 3.4 µg/mL (≈ 10 µM).

Consider `CC(C)C(=O)NNC(=O)c1csc(-c2cccs2)n1`, for which the kinetic solubility was above 44.3 µg/mL.

On to `COc1ccccc1C(=O)Nc1cccc2nc(C)ccc12`, for which the kinetic solubility was found to be 39.1 µg/mL (≈ 134 µM).

`O=C(CCNC(=O)c1ccccc1)NCC1CCCCC1` registered a solubility (kinetic) above 43.3 µg/mL.

Compound `COc1ccccc1NC(=O)CNC(=O)CC12CC3CC(CC(C3)C1)C2` displayed a kinetic solubility of 43.1 µg/mL (≈ 121 µM).

`COc1ccc(NC(=O)CNC(=O)Cc2cccc3ccccc23)cc1` registered a kinetic solubility of 4.3 µg/mL (≈ 12.3 µM).

For `COC(=O)c1scc(C)c1S(=O)(=O)Nc1ccc(C)cc1`, the solubility (kinetic) was 6.5 µg/mL (≈ 20 µM).

Compound `N#Cc1cccc(CSc2ncnc(N)n2)c1` came in with a solubility (kinetic) above 36.5 µg/mL.

Compound `Cc1[nH]n(-c2ccccc2)c(=O)c1/C=N/NC(=O)c1cccc(F)c1` gave a kinetic solubility above 50.8 µg/mL.

`COc1ccccc1NC(=O)Cc1cccc2ccccc12` came in with a solubility (kinetic) of 2.1 µg/mL (≈ 7.21 µM).

`CS/C(=C\C(=O)c1ccco1)Nc1ccccc1Cl` returned a solubility (kinetic) of 10.4 µg/mL (≈ 35.4 µM).

Compound `CCn1c(C)c(CS(=O)(=O)c2ccccc2)[nH]c1=O` yielded a kinetic solubility of 9.8 µg/mL (≈ 35 µM).

Compound `S=C(Nc1cccc(Cl)c1Cl)N1CCCC1` showed a kinetic solubility of 15.7 µg/mL (≈ 57 µM).

Consider `Cc1cccc(C(=O)N[C@@H](C)C(=O)N2CCN(c3ncccn3)CC2)c1`, for which the solubility (kinetic) is above 53 µg/mL.

Consider `Cc1cc(SCC(=O)N2CCCC2=O)nc2ccccc12`, for which the solubility (kinetic) was found to be 11.2 µg/mL (≈ 37.3 µM).

On to `O=[N+]([O-])c1cccc(N2Cc3ccccc3C2)c1`, for which the solubility (kinetic) is 7.9 µg/mL (≈ 32.9 µM).

Take `COc1ccc(C)cc1S(=O)(=O)NC1CCCCCC1`: the kinetic solubility is 4.8 µg/mL (≈ 16.1 µM).

Consider `CCc1ccccc1NC(=O)CCN1C(=O)C2C3CCC(C3)C2C1=O` (stereo unspecified), for which the solubility (kinetic) is 43 µg/mL (≈ 126 µM).

The compound `CCn1cc(C(=O)NCCC(=O)NCCO)c(=O)c2cc3c(cc21)OCO3` came in with a solubility (kinetic) above 56.3 µg/mL.

Turning to `CNCCCC1c2ccccc2C=Cc2ccccc21.Cl`, the kinetic solubility is above 45 µg/mL.

`S=C(NCCN1CCOCC1)NC1CCCCC1`: the kinetic solubility came to 38.5 µg/mL (≈ 142 µM).

`COc1ccc2[nH]cc(CCNC(=O)Cc3c(F)cccc3Cl)c2c1` gave a solubility (kinetic) of 3.9 µg/mL (≈ 10.8 µM).

Regarding `CCCCCCC1CC(=O)NC(=O)N1` (stereo unspecified), the kinetic solubility turned out to be 27.8 µg/mL (≈ 140 µM).

The compound `C/C(=N\OCC(=O)O)c1ccc(Cl)cc1` registered a solubility (kinetic) above 34.1 µg/mL.

The compound `O=C(Nc1ccccc1F)c1cc(Cl)sc1Cl` returned a kinetic solubility of 5.2 µg/mL (≈ 17.9 µM).

As to `CCC(=O)c1cn(CC(=O)Nc2cccc(OC)c2)c2ccccc12`, the kinetic solubility was below 0.4 µg/mL.

The compound `COc1cc(C)nc(NS(=O)(=O)c2ccccc2Cl)n1` returned a kinetic solubility of 38.9 µg/mL (≈ 124 µM).

Take `O=C(COC(=O)Cc1ccsc1)Nc1ccc(Cl)cc1F`: the kinetic solubility came to 47.7 µg/mL (≈ 146 µM).

`C=C(C)CN1C(=O)C(=O)N(CC(=C)C)C1=O` had a kinetic solubility above 33.3 µg/mL.

Consider `Cn1c(SCC(=O)NCc2ccco2)nnc1C1CC1`, for which the solubility (kinetic) was above 43.9 µg/mL.

As for `CCN1CCN(C(=O)C(Cc2ccccc2)NC(=O)c2ccc(Cl)c(S(=O)(=O)N(C)C)c2)CC1` (stereo unspecified), the solubility (kinetic) is above 76.1 µg/mL.

`O=C(CNC(=O)c1ccc(OC(F)F)cc1)NC1CCCc2ccccc21` (stereo unspecified) registered a solubility (kinetic) of 5.6 µg/mL (≈ 15 µM).
